What all share (conditions): Cardiac atrium
Assay [1] is filed under the species Cavia porcellus. In words: Effect on rate of atrial contractions induced by PTX-B in guinea pig (control value). The class given is functional, organism-based.
The species named for assay [2] is Cavia porcellus. Description: Effect on force of atrial contractions induced by PTX-B in guinea pig (control value). Type of assay: functional.
For assay [3], the species on record is Cavia porcellus. In words: Effect on rate of atrial contractions induced by PTX-B in guinea pig. The class given is functional, organism-based.
The species named for assay [4] is Cavia porcellus. In words: Effect on force of atrial contractions induced by PTX-B in guinea pig. Type of assay: functional, organism-based.

In general, IC50 refers to the concentration needed to halve the response being measured. Higher therefore signals weaker potency.

`COC(=O)C1=C(C)NC(C)=C(C(=O)OC)C1c1ccccc1[N+](=O)[O-]` [NIFEDIPINE]: the IC50 in the assay filed under Cavia porcellus [1] turned out to be 0.6 µM; in the assay filed under Cavia porcellus [2] it was 0.4 µM; in the assay listed under Cavia porcellus [3] it was 12 µM; in the assay filed under Cavia porcellus [4] it was 6 µM.
Take `COc1ccc(CCN(C)CCCC(C#N)(c2ccc(OC)c(OC)c2)C(C)C)cc1OC` (stereo not drawn) [VERAPAMIL]: the IC50 in the assay filed under Cavia porcellus [1] came out at 0.7 µM; in the assay filed under Cavia porcellus [2], 0.8 µM; in the assay listed under Cavia porcellus [3] it was 16 µM; in the assay filed under Cavia porcellus [4] it was 10 µM.

For the origin of these results see ChEMBL document CHEMBL1122977, “A new class of cardiotonic agents: structure-activity correlations for natural and synthetic analogues of the alkaloid A new class of A new class of cardiotonic agents: structure-activity correlations for natural and synthetic analogues of the alkaloid pumiliotoxin B …” (J Med Chem, 1985).
